Laboratory results reported in patent publication US20260008784A1 (VASTHERA CO., LTD., priority 2022, published 2026).

Experiments:
NIH-3T3 cells = experiment: Intracellular H2O2-eliminating activity (CM-H2DCF-DA fluorescence); type: cell-based; conditions: Mus musculus, NIH3T3, glucose oxidase, concentration at 50% reduction of intracellular H2O2
Method: The activity of test compounds in present invention to eliminate intracellular H2O2 was measured as follows. NIH-3T3 cells (ATCC) were seeded in a 35-mm culture dish at 2×10^5 cells/well. After culture for 24 hours, cells were serum-starved with phenol red free-basal DMEM containing 0.5% FBS for 6 h. Starved NIH 3T3 cells were pretreated with compounds diluted with phenol red free-basal DMEM at concentrations ([…]) for 30 min, followed by treatment with 20 mU of glucose oxidase (Gox) for 30 min. A reactive oxygen species-sensitive fluorescence dye, carboxymethyl-dichlorofluorescein-diacetate (CM-H2DCF-DA), which was prepared in 1 mM DMSO stock and diluted 500 times in phenol red free-basal DMEM, was added to the cells and incubated for 5 min. Then, cells were quickly rinsed with basal medium. Images were taken at excitation 497 nm/emission 518 nm settings using a fluorescence microscope. Three images at 10× magnification per sample were obtained, and fluorescence intensities from 30 or more individual cells per image were averaged.
The intracellular H2O2-eliminating activity of test compounds in present invention was measured using a live-cell imaging fluorescence probe (CM-HaDCF-DA). H2O2-eliminating activity was measured depending on ascending concentrations of the test compound and expressed as the percent of activity compared to the untreated control group. EC50 represents the concentration of test compound at 50% reduction of intracellular H2O2.

[1] = Measurement of redox potential (DTT redox buffers, HPLC); type: physicochemical; conditions: DTT(Red)/DTT(Ox) redox buffers, 3 h, 30° C., 50% reduction of test compound
[2] = tested on: Tyr 857 phosphorylation of PDGF receptor-β (PDGFRβ) in HASMC; experiment: Immunoblot of PDGF-mediated signaling in PrxII knock-down HASMC; type: cell-based, human; conditions: for Effect on phosphorylation of Tyr 857 on PDGFR: HASMC depleted of PrxII expression, FIG. 2
Method in brief: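 HASMC and PASMC with PrxII knocked down by siRNA were treated with test compounds and PDGF-stimulated. Lysates in Hepes pH 7.0/Triton X-100 buffer with phosphatase and protease inhibitors were immunoblotted with anti-phospho-Tyr 857 PDGFRβ antibody. Membranes were stripped and reprobed.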

[3] = tested on: human aortic smooth muscle cell (HASMC); experiment: PDGF-induced proliferation assay, HASMC (PrxII siRNA); type: cell-based; conditions: for Degree of HASMC proliferation: PDGF-BB 25 ng/mL, percent of untreated control; for IC50: Homo sapiens, HASMC, 50% growth inhibition, PDGF-stimulated
[4] = tested on: human pulmonary artery smooth muscle cell (PASMC); experiment: PDGF-induced proliferation assay, PASMC (PrxII siRNA); type: cell-based; conditions: for Degree of PASMC proliferation: PDGF-BB 25 ng/mL, percent of untreated control; for IC50: Homo sapiens, PASMC, 50% growth inhibition, PDGF-stimulated

Structure (SMILES)	EC50 (NIH-3T3 cells) [nM]	Midpoint redox potential (E m) [1] [mV]	Effect on phosphorylation of Tyr 857 on PDGFR [2]	Degree of HASMC proliferation ([3]; 2.5 nM) [%]	Degree of HASMC proliferation ([3]; 5 nM) [%]	Degree of HASMC proliferation ([3]; 10 nM) [%]	Degree of HASMC proliferation ([3]; 25 nM) [%]	IC50 [3] [nM]	Degree of PASMC proliferation ([4]; 2.5 nM) [%]	Degree of PASMC proliferation ([4]; 5 nM) [%]	Degree of PASMC proliferation ([4]; 10 nM) [%]	Degree of PASMC proliferation ([4]; 25 nM) [%]	Degree of PASMC proliferation ([4]; 50 nM) [%]	Degree of PASMC proliferation ([4]; 100 nM) [%]	IC50 [4] [nM]	Concentrations at which phosphorylation of Tyr 857 on PDGFRβ is significantly reduced ([2]; HASMCs, PrxII knock-down, FIG. 1)
CN1C(=O)C2CSSC1(C)C(=O)N2Cc1ccc2ccccc2n1 (centres unmarked) [Compound 5, 1,8-dimethyl-6-(quinolin-2-ylmethyl)-2,3-dithia-6,8-diazabicyclo[3.2.2]nonane-7,9-dione]	7.77	−290.3	strongly abolish the phosphorylation	62.3	52.4	36.9	9.7	4.87	71.3	48.3	37.5	26.8	1.9	2.5	5.64	–
O=C1C2CSSC3(COCCN13)C(=O)N2Cc1ccccc1 (centres unmarked) [Compound 8, 12-benzyltetrahydro-5H,10H-4,10a-(epiminomethano)[1,4]oxazino[3,4-c][1,2,4]dithia zepine-5,11-dione]	6.57	−272.6	–	75.1	40.1	46.9	30.2	6.46	57.7	41.7	24.8	5.7	0.0	0.0	3.52	–
CN1C(=O)C2(C)SSCC1C(=O)N2C (centres unmarked) [Compound 1, 1,6,8-trimethyl-2,3-dithia-6,8-diazabicyclo[3.2.2]nonane-7,9-dione]	8.25	−285.25	strongly abolish the phosphorylation	70.0	43.9	17.1	1.5	4.18	70.8	49.8	29.4	14.3	0.0	0.0	5.01	above 2.5 nM
CCN1C(=O)C2(C)SSCC1C(=O)N2CC (centres unmarked) [Compound 20, 6,8-diethyl-1-methyl-2,3-dithia-6,8-diazabicyclo[3.2.2]nonane-7,9-dione]	–	−296.79	strongly abolish the phosphorylation	85.8	58.7	34.9	12.3	6.69	82.2	51.5	31.6	21.1	7.3	5.2	6.17	–
